# US11459586B2, “Methods for increasing efficiency of nuclease-mediated gene editing in stem cells” (President and Fellows of Harvard College, priority 2016, dated 2022)
# System: human iPSC
# Assay: mThy1 gene targeting in hiPSC lentivirally overexpressing anti-apoptotic genes (EGFP+ vs EGFP- subsets)
# Format: cell-based
# Conditions: lentiviral overexpression
# Excerpt: FIGS. 3A-D. Overexpression of anti-apoptotic factors increases gene targeting rates in human iPSC, both for HR-mediated gene replacement and NHEJ-mediated gene excision. FIG. 3A. Mouse Thy1 gene targeting scheme. Two Crispr sgRNAs target human THY1 either within intron 1 (Left) or after the polyadenylation site (Right). The mouse Thy1 targeting vector plasmid contains mThy1 coding exons 2 and 3, flanked by hThy1 homology arms outside the sgRNA sites—coding exon 1 (which encodes the signal peptide) is retained but the sgRNA sites are disrupted. FIG. 3B. Plain human iPSC were infected with lentivirus that constitutively expresses EGFP together with an anti-apoptotic gene separated by an IRES. Three days after infection, each culture was nucleofected with plasmids encoding the mThy1 targeting vector, Cas9 nuclease, and Thy1 Left, Right, both, or no sgRNAs (pUC19). Five days later, cells were analyzed by flow cytometry. FIG. 3C. Representative FACS plots gated on live single cells: iPSC from each transfected culture were gated based on EGFP expression and the percentage of cells within those subsets that have gained mThy1 expression and/or lost hThy1 expression are indicated. […]
# Subsequently, we determined whether rescue by these anti-apoptotic genes would result in higher gene editing frequencies in hiPSC. […]
substance,measurement,setting,value
"Bcl-2: B cell lymphoma 2 protein, anti-apoptotic, overexpressed from lentivirus or Cas9 plasmid",frequency of NHEJ-mediated hThy1 homozygous gene deletions,both Thy1 sgRNAs,increased
same,frequency of HR-mediated mThy1 homozygous gene replacements,one sgRNA,dramatic increase
